# Reference: patent US7666446B2, “Oral formulation for delivery of poorly absorbed drugs” (ProCarrier, Inc., priority 2004, dated 2010)
# Where two headings read alike, the source gives them in different places.
# What was measured:
# [1] = Plasma aztreonam after intraduodenal aztreonam/PEP (HPLC); format: in vivo; details: male, Sprague-Dawley, rat, rats
# Experimental: (§1) The abdominal muscle was sutured under the skin. […] Four rats were in each treatment group. […]
# Aztreonam solution (containing arginine as a pH adjuster) was mixed with a solution of methylcellulose, and this mixture was added to solutions of glucosamine and sucrose palmitate in water before administration to rats. […] The contents of aztreonam/PEP comprised an individual dosage of 40 mg/kg aztreonam, 400 mg/kg sucrose palmitate, glucosamine in a 1:4 mole ratio of aztreonam to glucosamine, methylcellulose in a 1:0.5 mole ratio of aztreonam to methylcellulose, and arginine in a 1:0.6 mole ratio of aztreonam to arginine. […] Plasma was analyzed by HPLC, and bioavailability was calculated.
# [2] = Plasma calcitonin after intraduodenal calcitonin/PEP (ELISA); format: in vivo; details: male, Sprague-Dawley, rat, rats, read-out: Average plasma concentration of Calcitonin
# Experimental: as §1
# Plasma was analyzed by ELISA according to methods well known in the art.
# [3] = Plasma isepamicin after intraduodenal isepamicin/PEP (HPLC); format: in vivo; details: male, Sprague-Dawley, rat, other: intraduodenal, rats
# Experimental: as §1
# Isepamicin solution was mixed with methylcellulose solution, and the resulting mixture was mixed with solutions of glucosamine and sucrose stearate 16 in water before administration to rats. […] The contents of isepamicin/PEP comprised an individual dosage of 75 mg/kg isepamicin, 400 mg/kg sucrose stearate, glucosamine in a 1:4 mole ratio of isepamicin to glucosamine, and methylcellulose in a 1:0.5 mole ratio of isepamicin to methylcellulose. […] Plasma was analyzed by HPLC, and bioavailability was calculated.
# [4] = Plasma netilmicin after intraduodenal netilmicin/PEP (HPLC); format: in vivo; details: male, Sprague-Dawley, rat, rats
# Experimental: as §1
# (§2) Netilmicin solution was mixed with a solution of methylcellulose, and this mixture was added to solutions of glucosamine and sucrose stearate in water before administration to rats. […] The contents of netilmicin/PEP comprised an individual dosage of 80 mg/kg netilmicin, 400 mg/kg sucrose stearate, glucosamine in a 1:4 mole ratio of netilmicin to glucosamine, and methylcellulose in a 1:0.5 mole ratio of netilmicin to methylcellulose. […] Plasma was analyzed by HPLC, and bioavailability was calculated.
# [5] = Plasma teicoplanin after intraduodenal teicoplanin/PEP (HPLC); format: in vivo; details: rats
# Experimental: as §1
# as §2, with “Teicoplanin” for “Netilmicin”, “teicoplanin/PEP” for “netilmicin/PEP”, “64” for “80”, “teicoplanin,” for “netilmicin,”, “teicoplanin” for “netilmicin”
# [6] = diabetic rats, intraduodenal, insulin 50 IU/kg in carrier (100 units)
# From the text: as §1
# diabetes induced rats = test: Serum glucose after intraduodenal insulin/PEP in diabetic rats; format: in vivo; details: insulin 50 IU/kg in carrier (100 units)
# From the text: as §1
# non-diabetic rats = test: Serum glucose after intraduodenal insulin/PEP in non-diabetic rats; format: in vivo; details: insulin 50 IU/kg in carrier (100 units)
# From the text: as §1
# [7] = Decomposition test: rhGH concentration by ELISA after shaking; format: physicochemical
# Experimental: A solution of rhGH (5 ng/mL) was prepared in 20 mM phosphate buffer. The phosphate buffer was prepared in triple-distilled, filtered water (0.22 μm filter), and its pH was adjusted to pH 7.4 with sodium hydroxide solution. Solutions of rhGH were shaken for 1 min at high speed with a vortex mixer (Scientific Industries Inc.). After shaking, samples were equilibrated for specific time intervals at room temperature. Concentrations of rhGH were then determined by ELISA according to methods well known in the art.
# [8] = rat, in vivo
# Experimental: To determine absorption from the intestine, male Sprague Dawley rats weighing 250-300 g with free access to water were fasted for about 18 h prior to experiments. These rats were anesthetized and maintained with Ketamine/Xylazine (([…])/(80 mg/kg)) by intraperitoneal injection. The small intestine was exposed by a midline abdominal incision. A small incision was made in the stomach to insert a polyethylene tube (i.d. 0.76 mm, o.d. 1.22 mm, Clay Adams), toward the middle duodenum, which was closed at the exposed end by a stopcock to prevent drainage of drug solution from the duodenum. Blood samples were taken with a heparinized syringe through the jugular vein catheter at predetermined time intervals. After collecting, samples were coagulated for about 90 min and then were centrifuged for 10 min at 6000 rpm. The supernatant was removed and stored at −20° C. Samples were analyzed for hGH protein levels with a Human Growth Hormone ELISA Kit (coated plate, ICN Diagnostics) according to the manufacturer's protocol.
# For the controls, either glucosamine 40 mg/kg plus sucrose laurate 40 mg/kg (i.e., 100 units of carrier) or 10 mg/kg of rhGH (Advanced Protein Technologies Inc., Suwon, Korea) were administered per intraduodenum. […] To evaluate the effect of varying the amount of carrier administered, the amount of rhGH was held at 3 mg/kg rhGH and the Tmax was measured. […] In the case of intraduodenal administration, the controls were fixed at 10 units of carrier. The amount of rhGH was varied to include 1, 3, and 10 mg/kg of rhGH.
# Finally, to evaluate the effectiveness of the carrier itself, the type of carrier was varied while maintaining the same level of rhGH (3 mg/kg).
# [9] = Intraduodenal absorption of rhGH/PEP solutions, rhGH by ELISA (Example 3); format: in vivo, male Sprague-Dawley rats; details: rats, rhGH administered without PEP solution
# Experimental: RhGH solutions containing a promoter (glucosamine or poly-L-lysine), an enhancer (sucrose laurate 16), and a protector (methylcellulose) were prepared in water according to the proportions set out in Table 2.
# as §1
molecule,measurement,setting,value
C[C@H]1[C@H](NC(=O)/C(=N\OC(C)(C)C(=O)O)c2csc(N)n2)C(=O)N1S(=O)(=O)O [Aztreonam],concentration at 60 min,"[1]; other: intraduodenal, aztreonam/PEP 40 mg/kg aztreonam, 60 min",97000 ng/mL
same,concentration at 90 min,"[1]; other: intraduodenal, aztreonam/PEP 40 mg/kg aztreonam, 90 min",87900 ng/mL
same,concentration at 120 min,"[1]; other: intraduodenal, aztreonam/PEP 40 mg/kg aztreonam, 120 min",89600 ng/mL
same,concentration at 180 min,"[1]; other: intraduodenal, aztreonam/PEP 40 mg/kg aztreonam, 180 min",67000 ng/mL
same,concentration at 240 min,"[1]; other: intraduodenal, aztreonam/PEP 40 mg/kg aztreonam, 240 min",55200 ng/mL
same,concentration at 30 min,"[1]; other: intraduodenal, aztreonam/PEP (40 mg/kg aztreonam, 400 mg/kg sucrose palmitate, glucosamine, methylcellulose, arginine), 30 min",95400 ng/mL
same,bioavailability,"[1]; aztreonam/PEP 40 mg/kg aztreonam, read-out: percent bioavailability",91.1 ± 14.6%
CC(C)C[C@H](NC(=O)[C@H](CCCCN)NC(=O)CNC(=O)[C@H](CC(C)C)NC(=O)[C@@H](NC(=O)[C@@H]1CSSC[C@H](N)C(=O)N[C@@H](CO)C(=O)N[C@@H](CC(N)=O)C(=O)N[C@@H](CC(C)C)C(=O)N[C@@H](CO)C(=O)N[C@@H]([C@@H](C)O)C(=O)N1)C(C)C)C(=O)N[C@@H](CO)C(=O)N[C@@H](CCC(N)=O)C(=O)N[C@@H](CCC(=O)O)C(=O)N[C@@H](CC(C)C)C(=O)N[C@@H](Cc1c[nH]cn1)C(=O)N[C@@H](CCCCN)C(=O)N[C@@H](CC(C)C)C(=O)N[C@@H](CCC(N)=O)C(=O)N[C@H](C(=O)N[C@@H](Cc1ccc(O)cc1)C(=O)N1CCC[C@H]1C(=O)N[C@@H](CCCNC(=N)N)C(=O)N[C@H](C(=O)N[C@@H](CC(N)=O)C(=O)N[C@H](C(=O)NCC(=O)N[C@@H](CO)C(=O)NCC(=O)N[C@H](C(=O)N1CCC[C@H]1C(N)=O)[C@@H](C)O)[C@@H](C)O)[C@@H](C)O)[C@@H](C)O [Calcitonin],level at 0.5 h,"[2]; calcitonin/PEP 2 mg/kg calcitonin, 30 min",8.61 ng/mL
same,level at 0.75 h,"[2]; calcitonin/PEP 2 mg/kg calcitonin, 45 min",10.9 ng/mL
same,level at 1 h,"[2]; calcitonin/PEP 2 mg/kg calcitonin, 60 min",7.55 ng/mL
same,level at 1.5 h,"[2]; calcitonin/PEP 2 mg/kg calcitonin, 90 min",3.36 ng/mL
same,level at 2 h,"[2]; calcitonin/PEP 2 mg/kg calcitonin, 120 min",1.72 ng/mL
same,level at 3 h,"[2]; calcitonin/PEP 2 mg/kg calcitonin, 180 min",0.69 ng/mL
same,level at 4 h,"[2]; calcitonin/PEP 2 mg/kg calcitonin, 240 min",0.99 ng/mL
same,level at 0.25 h,"[2]; calcitonin/PEP (2 mg/kg calcitonin, 40 mg/kg sucrose laurate 16, glucosamine, methylcellulose), 15 min",8.02 ng/mL
CN[C@@H]1[C@@H](O)[C@@H](O[C@@H]2[C@@H](O)[C@H](O[C@H]3O[C@H](CN)[C@@H](O)[C@H](O)[C@H]3O)[C@@H](N)C[C@H]2NC(=O)[C@@H](O)CN)OC[C@]1(C)O [Isepamicin],concentration at 60 min,"[3]; isepamicin/PEP 75 mg/kg isepamicin, 60 min",102000 ng/mL
same,concentration at 120 min,"[3]; isepamicin/PEP 75 mg/kg isepamicin, 120 min",73600 ng/mL
same,concentration at 180 min,"[3]; isepamicin/PEP 75 mg/kg isepamicin, 180 min",49900 ng/mL
same,concentration at 240 min,"[3]; isepamicin/PEP 75 mg/kg isepamicin, 240 min",43900 ng/mL
same,concentration at 360 min,"[3]; isepamicin/PEP 75 mg/kg isepamicin, 360 min",35800 ng/mL
same,concentration at 30 min,"[3]; isepamicin/PEP (75 mg/kg isepamicin, 400 mg/kg sucrose stearate, glucosamine, methylcellulose), 30 min",84200 ng/mL
CCN[C@@H]1C[C@H](N)[C@@H](O[C@H]2OC(CN)=CC[C@H]2N)[C@H](O)[C@H]1O[C@H]1OC[C@](C)(O)[C@H](NC)[C@H]1O [Netilmicin],concentration at 60 min,"[4]; other: intraduodenal, netilmicin/PEP 80 mg/kg netilmicin, 60 min",70700 ng/mL
same,concentration at 120 min,"[4]; other: intraduodenal, netilmicin/PEP 80 mg/kg netilmicin, 120 min",39300 ng/mL
same,concentration at 180 min,"[4]; other: intraduodenal, netilmicin/PEP 80 mg/kg netilmicin, 180 min",38900 ng/mL
same,concentration at 240 min,"[4]; other: intraduodenal, netilmicin/PEP 80 mg/kg netilmicin, 240 min",35800 ng/mL
same,concentration at 360 min,"[4]; other: intraduodenal, netilmicin/PEP 80 mg/kg netilmicin, 360 min",34800 ng/mL
same,concentration at 30 min,"[4]; other: intraduodenal, netilmicin/PEP (80 mg/kg netilmicin, 400 mg/kg sucrose stearate, glucosamine, methylcellulose), 30 min",62100 ng/mL
same,bioavailability,"[4]; netilmicin/PEP 80 mg/kg netilmicin, read-out: percent bioavailability",73%
Teicoplanin,percent bioavailability,[5]; teicoplanin/PEP 64 mg/kg teicoplanin,35.07%
same,Average plasma concentration Teicoplanin,"[5]; teicoplanin/PEP 64 mg/kg teicoplanin, 60 min",9.50 µg/mL
same,Average plasma concentration Teicoplanin,"[5]; teicoplanin/PEP 64 mg/kg teicoplanin, 120 min",10.36 µg/mL
same,Average plasma concentration Teicoplanin,"[5]; teicoplanin/PEP 64 mg/kg teicoplanin, 180 min",12.22 µg/mL
same,Average plasma concentration Teicoplanin,"[5]; teicoplanin/PEP 64 mg/kg teicoplanin, 240 min",11.29 µg/mL
same,Average plasma concentration Teicoplanin,"[5]; teicoplanin/PEP (64 mg/kg teicoplanin, 400 mg/kg sucrose stearate, glucosamine, methylcellulose), 30 min",11.14 µg/mL
"insulin: insulin given with methylcellulose, sucrose laurate 16 and glucosamine (insulin/PEP composition)",serum insulin,[6],detected
same,hypoglycemic effect (serum glucose),diabetes induced rats,significant hypoglycemic effects were observed
same,hypoglycemic response (serum glucose),non-diabetic rats,No significant hypoglycemic response
rhGH: recombinant human growth hormone,Concentration rhGH,"[7]; 0 min, 5 ng/mL rhGH, phosphate buffer pH 7.4",5 ng/mL
same,Concentration rhGH,"[7]; 1 min after shaking, room temperature",1.05 ng/mL
same,Concentration rhGH,"[7]; 30 min after shaking, room temperature",0.65 ng/mL
same,Concentration rhGH,"[7]; 60 min after shaking, room temperature",0.43 ng/mL
same,Concentration rhGH,"[7]; 90 min after shaking, room temperature",0.40 ng/mL
same,Tmax,[8]; 3 mg/kg,less than 20 min
same,absorption of rhGH,[8]; 3 mg/kg,increased absorption
same,bioavailability,[8]; 3 mg/kg,7.1%
same,peak serum rhGH concentration,"[8]; sc, 0.1 mg/kg",73 ng/mL
same,rhGH in serum,[9],not detected
